Experimental data: patent publication US20240025887A1, “THIENYL AND CYCLOALKYL AMINOPYRIMIDINE COMPOUNDS AS INHIBITORS OF NUAK KINASES, COMPOSITIONS AND USES THEREOF” (Ontario Institute for Cancer Research (OICR), priority 2021, published 2024)

What was measured:
[1] = test system: YAP/TAZ transcriptional function in several cancer cell lines; settings: PCR; cited from earlier work
[2] = test system: YAP/TAZ nuclear localization in several cancer cell lines; settings: IF confocal microscopy; cited from earlier work
[3] = test system: pSer445 MYPT1 in MDA-MB-231 cells; experiment: Cell-based phospho-MYPT1 assay; settings: 500 nM, 1 hour, immunoblot, FIG. 2
Procedure: Compounds with sufficient activity in the biochemical NUAK assay were evaluated in a cell-based assay to confirm their targeted activity. To allow direct assessment of target engagement by NUAK2 inhibitors in cells, an antibody to MYPT1, a NUAK2 substrate, which specifically recognizes the phosphorylated Ser445 epitope in endogenous MYPT1 protein was utilized (Biochem J. 2014 457 (Pt 1): 215-225; Biochem J. 201 461 (Pt 2): 233-245).
MDA-MB-231 cells were incubated in the absence (DMSO) or presence of Compound I-1 (500 nM) for 1 hour. Cell were lysed at 4° C. for 30 mins in RIPA buffer (50 mM tris-HCL, 150 mM NaCl, 1 mM EDTA, 0.1% SDS, 1% NP-40, 0.5% Sodium deoxycholate) containing protease and phosphatase inhibitors. Samples were separated by sodium dodecyl sulfate-polyacrylamide gel electrophoresis (SDS-PAGE), transferred to nitrocellulose and immunoblotted for the detection of pSer^445MYPT1 or ACTIN.

MDA-MB-231 cells = experiment: Tumor cell growth inhibition assay (ATPlite); format: cell-based; settings: Homo sapiens, 120 h, MDA-MB-231 breast tumor cell line, 5 days
Procedure: MDA-MB-231 cells were seeded into a 384-well plate at 1,000 cells/well in 50 μl medium (Alpha-MEM containing 10% FBS, […] Normocin, Invivogen and […] Gentamycin, Invitrogen). Plates were then incubated overnight for the cells to attach. An HP D300 digital dispenser was used to dose cells with DMSO or test compounds across a 16-point range of concentrations (high dose of 10 uM to low dose of 5 nM). Plates were incubated in a humidified 5% CO2 incubator at 37° C. After 5 days, plates were removed from the incubator and equilibrated to room temperature. An equal volume of ATPlite assay reagent was then added to each well, and samples processed according to manufacturer's instructions (Perkin Elmer). Luminescent signals were then measured using an Envision plate reader equipped with a US-Luminescence detector.

Aurora A = molecular target: T1, Aurora A (Homo sapiens, UniProt O14965); experiment: Aurora A counter screen; format: biochemical; settings: read-out: AUR-A (IC50)
T1 sequence (O14965 1-403): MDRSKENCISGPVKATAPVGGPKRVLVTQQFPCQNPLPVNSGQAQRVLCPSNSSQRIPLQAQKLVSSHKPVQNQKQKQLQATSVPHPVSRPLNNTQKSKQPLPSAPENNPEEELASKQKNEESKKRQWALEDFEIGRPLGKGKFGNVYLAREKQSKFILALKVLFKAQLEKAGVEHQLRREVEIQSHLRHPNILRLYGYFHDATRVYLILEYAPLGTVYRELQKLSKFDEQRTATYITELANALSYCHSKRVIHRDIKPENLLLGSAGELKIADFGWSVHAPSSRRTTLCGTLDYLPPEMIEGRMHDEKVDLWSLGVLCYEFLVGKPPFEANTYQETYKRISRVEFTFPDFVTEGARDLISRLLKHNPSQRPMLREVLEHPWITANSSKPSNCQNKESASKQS
Outline: (§1)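 Radiometric assay with full-length recombinant NUAK2 in 8 mM MOPS pH 7.0, 0.2 mM EDTA, 10 mM magnesium acetate, 300 μM peptide substrate and [33P]-ATP, 40 min at room temperature. Phosphoric acid stop, filter capture, scintillation counting. Aurora A and NUAK1 used as counter screens.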

[4] = test system: YAP/TAZ nuclear localization in Clover-YAP expressing MDA-MB-231 cells; experiment: Cell-based YAP/TAZ localization assay; settings: Clover-YAP MDA-MB-231 cells, live imaging every 10 min for 2 h, FIG. 1
Procedure: Compounds of the application were tested for their ability to inhibit localization of YAP/TAZ to the nucleus of cells using an assay generally described in Nature Communications, 2018, 9:3510. Live cell imaging of Clover-YAP expressing MDA-MB-231 cells was carried out using a custom WAVE-FX-X1 spinning disc confocal system (Quorum Technologies) with a modified Yokogawa CSU-X1 scanhead on an AxioObserver Z1 inverted microscope (Carl Zeiss) with a x40 NA 1.2 Plan Apochromat (Carl Zeiss) objective. Cells were plated in a 35 mm glass-bottom dish (Mat-Tek, P35G-1.5-14-C) and were maintained in a stage-top incubator at 37° C. and 5% CO2 during imaging. Cells were cultured in phenol-red free RPMI medium (Thermo Fisher Scientific, 11835030) with 5% FBS and 200 nM SiR-DNA (Spirochrom, S0007) was added 1 h prior to imaging to visualize the nuclei. Localization of Clover-YAP was monitored every 10 min for 2 h. Volocity software was used for image acquisition and processing.

NUAK1 = molecular target: T2, NUAK1 (Homo sapiens, UniProt O60285); experiment: NUAK1 counter screen; format: biochemical
T2 sequence (O60285 1-661): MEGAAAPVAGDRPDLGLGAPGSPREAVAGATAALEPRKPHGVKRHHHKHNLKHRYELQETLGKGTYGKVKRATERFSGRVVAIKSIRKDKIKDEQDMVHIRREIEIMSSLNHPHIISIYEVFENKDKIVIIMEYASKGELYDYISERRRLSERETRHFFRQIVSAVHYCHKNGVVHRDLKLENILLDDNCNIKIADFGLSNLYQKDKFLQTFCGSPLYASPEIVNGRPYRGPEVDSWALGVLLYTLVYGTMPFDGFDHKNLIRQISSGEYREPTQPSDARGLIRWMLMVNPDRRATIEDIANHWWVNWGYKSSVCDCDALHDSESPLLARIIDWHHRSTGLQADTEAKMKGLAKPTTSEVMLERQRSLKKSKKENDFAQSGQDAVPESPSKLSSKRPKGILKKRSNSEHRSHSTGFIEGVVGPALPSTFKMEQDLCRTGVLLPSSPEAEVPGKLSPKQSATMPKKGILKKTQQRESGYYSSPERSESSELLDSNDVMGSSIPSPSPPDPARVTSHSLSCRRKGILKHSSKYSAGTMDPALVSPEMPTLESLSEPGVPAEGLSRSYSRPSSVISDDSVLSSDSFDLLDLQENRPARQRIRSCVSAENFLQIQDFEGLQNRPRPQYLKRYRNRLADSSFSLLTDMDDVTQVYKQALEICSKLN
Outline: as §1

NUAK2 (h) = molecular target: T3, NUAK2 (h) (Homo sapiens, UniProt Q9H093); experiment: NUAK2 enzymatic assay (radiometric, Eurofins); format: biochemical; settings: for AUR-A (IC50, nM)/NUAK2 (IC50, nM): NUAK2 selectivity over Aurora-A, ratio of IC50s; for IC50: radiometric, full-length recombinant enzyme
T3 construct: This assay was done radiometrically using full-length, recombinant enzyme; purchased Eurofins
T3 sequence (Q9H093 1-628): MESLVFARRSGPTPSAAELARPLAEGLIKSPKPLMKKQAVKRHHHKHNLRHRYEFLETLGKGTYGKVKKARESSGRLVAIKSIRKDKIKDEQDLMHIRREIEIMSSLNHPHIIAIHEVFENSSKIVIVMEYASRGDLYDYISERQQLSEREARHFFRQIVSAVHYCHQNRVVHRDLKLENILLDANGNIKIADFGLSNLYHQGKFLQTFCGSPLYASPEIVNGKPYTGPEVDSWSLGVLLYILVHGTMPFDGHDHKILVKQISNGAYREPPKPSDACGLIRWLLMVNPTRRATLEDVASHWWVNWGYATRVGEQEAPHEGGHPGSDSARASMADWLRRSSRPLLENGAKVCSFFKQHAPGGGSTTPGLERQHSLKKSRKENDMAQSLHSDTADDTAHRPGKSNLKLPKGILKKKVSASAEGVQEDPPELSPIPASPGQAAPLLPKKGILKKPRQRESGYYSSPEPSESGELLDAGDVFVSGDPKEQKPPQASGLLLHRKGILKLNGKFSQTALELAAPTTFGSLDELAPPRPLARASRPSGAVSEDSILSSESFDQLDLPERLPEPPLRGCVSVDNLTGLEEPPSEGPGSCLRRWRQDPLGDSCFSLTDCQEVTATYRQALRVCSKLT
Outline: as §1

| SMILES | YAP/TAZ transcriptional function (target gene expression) [1] | YAP/TAZ nuclear localization [2] | formation of cellular p-MYPT1 (pSer445) [3] | IC50 (MDA-MB-231 cells) | IC50 (Aurora A) | inhibition of YAP/TAZ nuclear localization [4] | IC50 (NUAK1) | AUR-A (IC50, nM)/NUAK2 (IC50, nM) (NUAK2 (h)) | IC50 (NUAK2 (h)) |
| --- | --- | --- | --- | --- | --- | --- | --- | --- | --- |
| CN1CCN(c2ccc(Nc3ncc4cc(C#N)c(=O)n(C5CCCC5)c4n3)cc2)CC1 [ON123300] | attenuates transcriptional function | a block of YAP/TAZ nuclear localization |  |  |  |  |  |  |  |
| CN1CCN(c2ccc(Nc3ncc(Cl)c(Nc4ccsc4C(N)=O)n3)c(OC(F)F)c2)CC1 [Compound I-1, 3-((5-chloro-2-((2-(difluoromethoxy)-4-(4-methylpiperazin-1-yl)phenyl)amino)pyrimidin-4-yl)amino)thiophene-2-carboxamide] |  |  | inhibits the formation of cellular p-MYPT1 | 195 nM | 101 to 1000 nM | significant improvement in inhibition of YAP/TAZ nuclear localization | 11 to 100 nM | 40 | 0.1 to 10 nM |
| CN1CCN(C2CCN(c3ccc(Nc4ncc(Cl)c(N[C@@H]5CCCC[C@H]5C(N)=O)n4)c(OC(F)F)c3)CC2)CC1 [Compound I-87, (1R,2R)-2-((5-chloro-2-((2-(difluoromethoxy)-4-(4-(4-methylpiperazin-1-yl)piperidin-1-yl)phenyl)amino)pyrimidin-4-yl)amino)cyclohexane-1-carboxamide] |  |  |  | 932 nM | > 1000 nM |  | 11 to 100 nM |  | 11 to 100 nM |
| CN1CCN(C2CCN(c3ccc(Nc4ncc(C(F)(F)F)c(Nc5ccsc5C(N)=O)n4)c(OC(F)F)c3)CC2)CC1 [Compound I-52, 3-((2-((2-(difluoromethoxy)-4-(4-(4-methylpiperazin-1-yl)piperidin-1-yl)phenyl)amino)-5-(trifluoromethyl)pyrimidin-4-yl)amino)thiophene-2-carboxamide] |  |  |  | 142 nM | 11 to 100 nM |  | 0.1 to 10 nM |  | 0.1 to 10 nM |
| CN1CCN(C2CCN(c3ccc(Nc4ncc(Cl)c(Nc5ccsc5C(N)=O)n4)c(OC(F)F)c3)CC2)CC1 [Compound I-41, 3-((5-chloro-2-((2-(difluoromethoxy)-4-(4-(4-methylpiperazin-1-yl)piperidin-1-yl)phenyl)amino)pyrimidin-4-yl)amino)thiophene-2-carboxamide] |  |  |  | 202 nM | 101 to 1000 nM |  | 11 to 100 nM | 30 | 11 to 100 nM |
| CN1CCN(c2ccc(Nc3ncc(Cl)c(N[C@@H]4CCCC[C@H]4C(N)=O)n3)c(OC(F)F)c2)CC1 [Compound I-82, (1R,2R)-2-((5-chloro-2-((2-(difluoromethoxy)-4-(4-methylpiperazin-1-yl)phenyl)amino)pyrimidin-4-yl)amino)cyclohexane-1-carboxamide] |  |  |  | 858 nM | 101 to 1000 nM |  | 11 to 100 nM | 176 | 0.1 to 10 nM |
| CN1CCN(c2ccc(Nc3ncc(Cl)c(Nc4ccsc4C(N)=O)n3)c(OC(F)F)c2F)CC1 [Compound I-42, 3-((5-chloro-2-((2-(difluoromethoxy)-3-fluoro-4-(4-methylpiperazin-1-yl)phenyl)amino)pyrimidin-4-yl)amino)thiophene-2-carboxamide] |  |  |  | 653 nM | > 1000 nM |  | 11 to 100 nM | 86 | 11 to 100 nM |
| CCC(=O)Nc1cccc(Oc2nc(Nc3ccc(N4CCN(C)CC4)cc3OC)ncc2Cl)c1 [WZ4003] | attenuates transcriptional function | a block of YAP/TAZ nuclear localization |  |  |  |  |  |  |  |
